Assay [1] deals with T1, Prolyl Oligopeptidase (POP) (Homo sapiens, UniProt P48147).
T1 construct: gene PREP; recombinant human POP (rhPOP), GST moiety removed
T1 sequence (P48147 1-710): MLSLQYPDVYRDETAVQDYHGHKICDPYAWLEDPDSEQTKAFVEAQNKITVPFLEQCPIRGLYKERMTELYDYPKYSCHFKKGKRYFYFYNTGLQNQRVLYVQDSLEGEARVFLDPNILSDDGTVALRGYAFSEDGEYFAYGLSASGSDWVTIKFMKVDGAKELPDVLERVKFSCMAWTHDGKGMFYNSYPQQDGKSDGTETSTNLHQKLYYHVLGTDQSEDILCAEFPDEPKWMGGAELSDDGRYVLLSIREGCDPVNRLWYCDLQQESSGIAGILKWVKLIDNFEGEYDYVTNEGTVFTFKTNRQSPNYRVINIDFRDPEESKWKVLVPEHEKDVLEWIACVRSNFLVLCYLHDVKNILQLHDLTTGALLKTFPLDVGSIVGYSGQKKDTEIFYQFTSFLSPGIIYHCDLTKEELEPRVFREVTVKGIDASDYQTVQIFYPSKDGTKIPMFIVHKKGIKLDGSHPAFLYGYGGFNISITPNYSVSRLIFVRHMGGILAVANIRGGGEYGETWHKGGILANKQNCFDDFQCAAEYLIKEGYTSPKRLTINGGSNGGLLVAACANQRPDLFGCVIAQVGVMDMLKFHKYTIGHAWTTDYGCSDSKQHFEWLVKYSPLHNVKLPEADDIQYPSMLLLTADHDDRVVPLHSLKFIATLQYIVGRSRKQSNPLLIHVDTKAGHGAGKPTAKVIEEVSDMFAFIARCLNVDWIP
As to the kind of experiment: RP-HPLC cleavage assay with purified rhPOP (TRH as substrate); Km/Vmax and Dixon plots. It is filed as biochemical.

For assay [2], the target named is T1, Prolyl Oligopeptidase (POP). As to the kind of experiment: RP-HPLC cleavage assay with purified rhPOP (TRH as substrate); Dixon plots. The class given is biochemical.

In general, IC50 refers to the concentration that inhibits the measured activity by half. A higher IC50 goes with lower potency. The compound `CCOC(=O)CN1C(=O)NC(CC)(c2ccccc2)C1=O` (centres unmarked) [T5450157] showed an IC50 in assay [1] of 130 µM.

The compound `O=C(CCC(=O)N1CCCC1)c1ccccc1` [T6816369] gave a 50% inhibitory concentration (IC50) in assay [2] of 32.1 µM.

(Values after paper PMC7112232, “Computational design of substrate selective inhibition” (PLoS Computational Biology, 2020).)
